Measurements from a melting point compilation (Tetko et al.; mined from patent text by program, amines drawn as free bases though some values may be those of a salt).

Structure (SMILES) | melting point
COc1cc(Cc2cnc(N)nc2N)cc2c1OC(C)(C)C=C2c1cccs1 | > 260 °C
CC(C)c1n[nH]c2c(NCc3ccccc3O)ncnc12 | 214 to 217 °C
c1ccc(Nc2nccc(-c3ccc(-c4ccc(N(c5ccccc5)c5ccccc5)cc4)cc3)n2)cc1 | > 300 °C
Cc1ccccc1NC(=O)Nc1ccc(C(=O)N2Cc3ccccc3Cc3ccccc32)cc1 | 188 to 190 °C
CC(C)N1C(=O)NCc2c(-c3ccccc3)cccc21 | 182 to 183 °C
COc1ccc(C2=NN(C3CCN(C(C)=O)CC3)C(=O)C3CC=CCC23)cc1Cl (stereo not given) | 206 to 208 °C
C=CCc1c(O)ccc2oc(C(=O)c3ccc(OC)cc3)c(C)c12 | 155 to 158 °C
COc1ccc(Cn2nc(-c3ccc(SC)cc3)c(-c3ccc(F)cc3)cc2=O)cc1 | 165 to 166 °C
Cc1nc(C(=O)O)c(C(=O)NC(C)(C)C)o1 | 186 to 188 °C
CCCCOC1C=CC(=O)N1S(=O)(=O)c1ccccc1 (stereo not given) | 66 to 67 °C
ClCc1csc(N2CCOCC2)n1 | 87 to 88 °C
COc1ccc(-c2ccc3c(-c4ccccc4)c(OC)ccc3c2)cc1 | 157 to 160 °C
COc1ccccc1-c1cc2cnc(N)nc2nc1NC(=O)NC(C)(C)C | 300 to 301 °C
COc1cc2cc(CO)c(CO)c(-c3ccnc(-n4nc(O)c5ccccc5c4=O)c3)c2cc1OC | > 250 °C
O=C(c1ccccc1)N1CC(O)C(O)C(O)C1CO (stereo not given) | 159 °C
CNc1cccc(NC(=O)CO)c1C#N | 160 to 162 °C
Cc1c(CCNC(=O)OC(C)(C)C)c2cc(S(=O)(=O)c3ccccc3)ccc2n1C | 151 to 155 °C
CC(C)(C)NCC(O)COc1ccc2c(=O)cc(-c3cc(O)cc(O)c3)oc2c1 (stereo not given) | 153 °C
CCc1ccc(Nc2ncc(Cc3ccc(OC)nc3)c3ncccc23)cc1Br | 142 to 146 °C
CC(Cc1cccnc1)(NC(=O)OC1C2CC3CC(C2)CC1C3)C(=O)NC(CO)Cc1ccccc1 (stereo not given) | 63 to 67 °C
CCCCCCC(=O)C(NC(=O)C=Cc1ccccc1)C(=O)OC (stereo not given) | 85 to 86 °C
O=C(CC1(c2ccc(OCc3ccc4ccccc4n3)cc2)CCCC1)NS(=O)(=O)Cc1ccccc1 | 171 °C
O=C(O)c1cn(-c2ccc(O)cc2)c2c(F)c(F)c(F)cc2c1=O | > 300 °C
CC(C)C[C@@H](CO)NC(=O)[C@H](Cc1c[nH]cn1)NC(=O)[C@H](CSSc1ncccc1[N+](=O)[O-])NC(=O)OC(C)(C)C | 185 to 188 °C

Structure (SMILES) | melting point
Nc1ccc(SCC2CCC2)cc1[N+](=O)[O-] | 49 to 53 °C
Brc1cc2c(c(C34CC5CC(CC(C5)C3)C4)c1)OCO2 | 136 °C
CC(O)C1(c2cccc(Cl)c2)CCCN(C)CC1 (stereo not given) | 123 to 124 °C
CC(=O)OCC1C=CC(n2cc(F)c(N)nc2=O)O1 (stereo not given) | 182 to 184 °C
C=CCc1cc2cc(CC=C(C)C)c(=O)[nH]c2c(CC=C)c1O | 241 to 244 °C
CCCCCc1cc(N)cc(O)c1 | 88 to 91 °C
N#Cc1ccc(CC23CCCN2C(=O)N(c2cc(Cl)cc(Cl)c2N)C3=O)cc1 (stereo not given) | 122 °C
Cc1cc(SCc2sc(-c3ccc(C(F)(F)F)cc3)nc2C)cc(C)c1OCC(=O)O | 157 to 158 °C
Cc1c(C(=O)c2sc(Nc3ccc(N4CCOCC4)cc3)nc2N)ncn1C | > 300 °C
N#CCc1nnc2n1-c1sc(Cl)cc1C(c1ccccc1Cl)=NC2 | 217 to 220 °C
Cc1ccc2c(c1)C(C(=O)O)c1ccccc1CO2 (stereo not given) | 183 to 184 °C
CC(C)(C)OC(=O)n1cccc1-c1ccc2c(c1)C1(CCCCC1)C(=O)N2 | 177 °C
O=C(O)C1CCCC2CSc3ccccc3C21 (stereo not given) | 200 to 203 °C
C[C@]1(COc2ccc(N3CCN(Cc4ccc(N5CCC(Oc6ccc(OC(F)(F)F)cc6)CC5)cc4)CC3)cc2)Cn2cc([N+](=O)[O-])nc2O1 | 198 to 201 °C
CC1=C(C(=O)OC(C)(C)C)C(c2ccc(Cl)cc2)C(C(=O)OC(C)(C)C)=C(C)N1 | 192 °C
COc1cc2nc(N)nc(-c3cccc(Cl)c3)c2cc1OC | 242 to 245 °C
CC(C)(C)n1cc(-c2ccc(-c3ccccc3)cc2)c2c(N)ncnc21 | 212 to 214 °C
CN1C=CCC(C(=O)NCCc2c[nH]c3ccccc23)=C1 | 40 to 70 °C
CC1(C)CCC(C)(C)c2cc(O)ccc21 | 142 °C
c1ccc(Nc2nsc3ccccc23)nc1 | 247 to 249 °C
O=C(O)c1ccc(S(=O)(=O)Oc2ccc(CCc3c(Cc4ccccc4)sc4ccccc34)cc2)cc1O | 57 to 59 °C
CCCCCC(NS(=O)(=O)c1ccc(Cl)cc1)c1ccc(CCCC(=O)O)cc1 (single isomer, unassigned; (-)) | 134 to 137 °C
COc1ncnc(OC)c1NC(=O)c1cccs1 | 198 to 200 °C
COc1ccc(-c2ncn(C3CCCCO3)c2-c2ccc(OC)cc2)cc1 (stereo not given) | 127 to 128 °C

Structure (SMILES) | melting point
CCc1nc2c(N)nc3cc(CCCNC(=O)NC(C)C)ccc3c2n1CC1CCOCC1 | 213 to 216 °C
O=Cc1ccc(C#Cc2cc3ncnc(Nc4ccc(OCc5cccc(F)c5)c(Cl)c4)c3s2)o1 | 229 °C
CC(=O)c1cc(C(C)=O)cc(N(C(C)=O)C(=O)Nc2ccccc2)c1 | 223 to 224 °C
CCOC(=O)C(Cc1ccccc1)=NO | 54 to 55 °C
CC(=O)Nc1nc(CCc2ccc(NC(N)=S)cc2)c(Cc2ccc(S(C)(=O)=O)cc2)s1 | 102 to 103 °C
Cc1cc2c(c(O)c1C=O)C(C)(C)CCC2(C)C | 91 to 92 °C
Nc1cc(C(F)(F)C(F)(F)C(F)(F)C=CC(F)(F)C(F)(F)C(F)(F)c2ccc(O)c(N)c2)ccc1O | 187 to 188 °C
CCCCCCCCCCCCC1=C(O)C(=O)c2ccccc2C1=O | 85 to 87 °C
COc1cc([N+](=O)[O-])ccc1-c1cccc(C(=O)O)c1 | 88 to 88.5 °C
CNC(=O)c1ccc2c(c1)C(=O)N1CCC[C@@H]1CO2 | 186 to 189 °C
O=C(CN1CCCC1)Nc1ccc(Br)cc1 | 60 to 63 °C
O=C1c2c(Cl)cccc2-n2cnc(-c3nnc(-c4ccccc4)o3)c2[C@@H]2CCCN12 | 221 to 222 °C
CC(Nc1ccc(Cc2ccccc2)cc1)C(=O)O (stereo not given) | 119 °C
CCCCCCCCCCCCCCN(C)c1cc(OCC)c(N)cc1C(=O)O | 80 to 81 °C
Cc1c(O)cc(OC(=O)Cc2ccc(CC(=O)Oc3cc(O)c(C)c(O)c3)cc2)cc1O | 276 to 278 °C
CCCCCC(CC(=O)Nc1c(C(C)C)cccc1C(C)C)c1cccc2c1OCO2 (stereo not given) | 114 to 115 °C
c1ccc2c(c1)CCc1ccccc1C2=NCC1CC1 | 98 to 99 °C
c1ccc(CN2CCC(n3nnc4ccccc43)CC2)cc1 | 110 to 111 °C
CCCCCCCCCCN1CCC2(CC1)CSC1=C(O2)c2ccccc2C(=O)C1=O | 110 to 111 °C
COc1ccc(OC)c2c1CCC(C#N)C2C#N (stereo not given) | 126 to 127 °C
Cc1noc(NS(=O)(=O)c2c(Cc3ccccc3)sc3ccccc23)c1Br | 120 to 123 °C
Cc1cccc(-c2n[nH]cc2-c2ccnc(-c3ccc(-n4ccnc4C)cc3)c2)n1 | 128 °C
